# In US20210144990A1, “IMPROVED ULTRA-FAST COOLING SYSTEM AND METHODS OF USE” (priority 2018, published 2021):
# System: corneal endothelial cells
# Test: Post-thaw quality of pig corneal endothelium after ultra-fast cooling, with or without DMSO in DMEM
# Format: cell-based
# Details: pig corneal pieces cooled to -196 degrees C by liquid nitrogen blade jet, thawed under 37 degrees C water jet
# Text: Small samples excised from pig corneas were cooled from room temperature (ambient) to −196 degrees C. using an ultra-fast cooling system of the present invention that contains a single liquid nitrogen blade jet and two gas nitrogen blade jets. Pig corneas were processed and cut into approx. 0.5 cm×0.5 cm×0.5 cm pieces, and each piece maintains a full layer of endothelium, i.e., a single layer of corneal endothelial cells of approximately 10 microns in size, on one surface. The tissues are first placed in standard holding media, Dulbecco's Modified Eagle Media (DMEM), at 4 degrees C. A sample holder was made with a holding cavity of 0.5 cm in depth and with a 20 microns thick sheet of stainless steel as its cover sheet. […] The corneal endothelium of each tissue faced to the cover sheet and directly contacted its inner surface, to achieve maximum cooling rate possibly provided by the liquid nitrogen jet for the endothelium and prevent exposure of the cells to liquid nitrogen flows. […] The post-thaw quality of the corneal endothelia was evaluated by quantification of endothelial cell number based on differential interference contrast light microscopy. The cell health was assessed by using cell circularity as a surrogate marker using differential interference contrast light microscopy. […]
structure (smiles),measurement,setting,value
"C[S+](C)[O-] [DMSO, dimethyl sulfoxide]","post-thaw endothelial cell viability (cell count vs fresh tissue, FIG. 19D)",10% DMSO in DMEM,comparable to readings of the fresh corneas
same,"post-thaw endothelial cell viability (cell count vs fresh tissue, FIG. 19D)",20% DMSO in DMEM,impacted the cell viability due to toxicity
